Laboratory results as given in patent US4043759A (priority 1976, dated 1977).

Test: Methotrexate concentration in patient serum as function of time after injection, by the radioassay
Assay type: in vivo
Procedure: The preparation of patient samples, such as patient serum and spinal fluid, is as follows:
1. Take 0.3 ml of fluid to be tested and add to 2.7 ml Buffer B to provide a 1:10 dilution.
2. Take 0.3 ml of 1:10 dilution and add to 2.7 ml of Buffer B to provide a 1:100 dilution.
3. Take 0.3 ml of 1:100 dilution and add to 2.7 ml Buffer B to provide a 1:1000 dilution.
4. Take 0.3 ml of 1:1000 dilution and add to 2.7 ml Buffer B to provide 1:10,000 dilution.
6. Centrifuge for 1 or 2 minutes at 2500 × g.
7. Decant supernate liquid into clean tubes.

SMILES: CN(Cc1cnc2nc(N)nc(N)c2n1)c1ccc(C(=O)N[C@@H](CCC(=O)O)C(=O)O)cc1 [Methotrexate]
- Concentration of Methotrexate (after infusion): 66000 ng/mL
- concentration at 24 h (human, 24 hours after injection): 7200 ng/mL
- concentration at 48 h (human, 48 hours after injection): 420 ng/mL
- concentration at 63 h (human, 63 hours after injection): 290 ng/mL
- concentration at 72 h (human, 72 hours after injection): 200 ng/mL
